Here are results for two compounds from patent US10837005B2, “Recombinant microorganism capable of producing methyl anthranilate and method of producing methyl anthranilate using the same” (priority 2019, dated 2020).

Series [1] is described as follows: Partition coefficient between aqueous-phase culture medium and organic-phase tributyrin. As to conditions: aqueous phase: Carbon-free MR minimum medium, organic phase tributyrin. Type of series: physicochemical. Here is the method: In order to solve the problem of toxicity of MANT, a two-phase aqueous organic culture system was used in the present invention (FIG. 5 in part a). Tributyrin was used as an organic solvent to extract MANT from the culture medium. Tributyrin extraction capacity was determined by measuring the partition coefficient between the aqueous medium of MANT and tributyrin, the solvent, and the result is shown in Table 2. Tributyrin is also capable of extracting ANT, but the amount of ANT extracted is very small compared to the amount of MANT and thus is negligible. […] The culture was carried out under the same conditions as in Example 1-2, except that, when IPTG was added, 10 mL of tributyrin was added therewith. MANT productivity was calculated on an aqueous phase basis (that is, Titer=Caq·Vaq+Corg·Vorg)/Vaq)).

Another series has as its system E. coli. Nature of the series: MANT toxicity test on E. coli. Type of series: cell-based. The protocol: […]. The low resistance of E. coli to MANT could adversely affect E. coli mutations that produce MANT at high concentrations. Thus, E. coli was cultured in a modified culture system.
The test system of series [2] is Pseudomonas putida KT2440.

SMILES strings stand for the structures.

`Nc1ccccc1C(=O)O` [Anthranilate, anthranilic acid]: the results for the Partition coefficient in series [1] (pH 5.0), in series [1] (pH 7.0) and in series [1] (pH 9.0) were 4.7 ± 0.2, 0.1 ± 0.0 and “Very low”, respectively.
`COC(=O)c1ccccc1N` [MANT, Methyl anthranilate] returned a Partition coefficient in series [1] (pH 7.0) of 420.1 ± 7.6. Also, in the series with E. coli, the “MANT concentration E. coli can withstand” value is given as “up to 0.5 g/L”. Also, the “final OD600 value” in the series with E. coli (E. coli exposed to various concentrations of MANT up to 1 g/L) is given as “significantly reduced”. Further, the “final OD600 value relative to base strain not exposed to MANT” value in the series on E. coli (exposed to 0.5 g/L of MANT) is reported as “about one third”. The “MANT concentration at which strain was not capable of growing” value in series [2] (P. putida KT2440) is given as 1.0 g/L. For the same compound, the growth profile result is “concentration-dependent inhibition” in series [2] (P. putida KT2440, various MANT concentrations) and “concentration-dependent inhibition” with C. glutamicum ATCC 13032 (C. glutamicum ATCC 13032, various MANT concentrations). The “MANT concentration at which growth was completely inhibited” value in the series on C. glutamicum ATCC 13032 (C. glutamicum) came out at 2.0 g/L.
